pIC50: −log10 of the molar value.
System: 855422-203-R-J1-PDC complex spheroid growth
Assay: Anticancer human tumor 855422-203-R-J1-PDC patient-derived bladder carcinoma cell line growth inhibition [AhR]
Details: for pIC50: curve of first compound; for viability, T/C: stronger effect = lower value
Text: Multicellular complex tumor spheroid response to aryl hydrocarbon receptor antagonists in combination with a variety of drugs and investigational agents in selected tumor cell lines
The current study was undertaken to assess response to aryl hydrocarbon receptor antagonists in combination with standard-of-care drugs and investigational agents in solid tumor complex spheroid models. Complex spheroids include a stromal component modeled by human endothelial cells (HUVEC) and fibroblasts modeled by human mesenchymal stem cells (MSCs). The concentration ranges selected for each drug and investigational agent were based upon clinically achievable concentrations if the clinical Cmax of the agent was known.
Compounds. The drugs and investigational agents: BAY 2416964 (NSC825713), GNF351 (NSC835774), CH-223191 (NSC835775), CPI-455 (NSC825282), aza-TdCyd (NSC777586), decitabine (NSC127716), belinostat (NSC758774), entinostat (NSC756642), pevonedistat (NSC761192), tazemetostat (NSC777109), talazoparib (NSC765396), olaparib (NSC753686), selinexor (NSC780203), nedisertib (M3814, NSC802822), bortezomib (NSC756655), venetoclax (NSC766270), doxorubicin (NSC123127), elimusertib (BAY189344, NSC800525), ceralasertib (AZD6738, NSC777638), TAK-243 (NSC785004), alisertib (NSC759677), etoposide (NSC141540), topotecan (NSC609699), eribulin (NSC707389), gemcitabine (NSC613327), carboplatin (NSC241240), cisplatin (NSC119875), and SN-38 (NSC673596) were obtained from the National Cancer Institute (NCI) Developmental Therapeutics Program Chemical Repository (32). The FDA-approved anticancer drug set is available from the Developmental Therapeutics Program at https://dtp.cancer.gov/organization/dscb/obtaining/available plates.htm. […] The stock solutions were prepared in dimethyl sulfoxide (DMSO, Sigma-Aldrich, St. Louis, MO, cat. D2650), except for the platinum compounds which were prepared in saline (Quality Biological, Gaithersburg, MD, cat. 114-055-101), at 800-fold the tested concentration and stored at -70 degrees C prior to their use. All drugs and investigational agents were tested over a range starting from a high concentration at or near the clinical Cmax and decreasing in half-log increments. If the clinical Cmax for an agent had not been determined, the highest concentration tested was 10 microM (Table 1).
Cell Culture. All cells were maintained in an incubator at 37 degrees C and 5% CO2 with 95% humidity. The PDC lines were cultured according to standard operating procedures established by the NCI PDMR (https://pdmr.cancer.gov). Briefly, all PDCs were thawed and cultured in Matrigel-coated flasks prepared with a working solution of 1X Ham's F-12 nutrient mix, without supplementation (Invitrogen, Waltham, MA, cat. 11765054), 100 U/mL penicillin-streptomycin (Invitrogen, cat. 15140122), and 2.5% Matrigel (Corning Inc., Corning, NY, cat. 354248) for the first three passages. All PDCs were cultured in complete DMEM/F-12 media containing advanced DMEM/F-12 (Invitrogen, cat. 12634028), 4.9% defined fetal bovine serum, heat inactivated (HyClone Laboratories Inc., Logan, UT, cat. SH30070.03HI), 389 ng/mL hydrocortisone (Sigma-Aldrich, cat. H4001), 9.7 ng/mL human EGF recombinant protein (Invitrogen, cat. PHG0313), 23.4 microg/mL adenine (Sigma-Aldrich, cat. A2786), 97.3 U/mL penicillin-streptomycin (Invitrogen, cat. 15140122), 1.9 mM L-glutamine (Invitrogen, cat. 25030081), and 9.7 microM Y-27632 dihydrochloride (Tocris Bioscience, Bristol, United Kingdom, cat. 1254). The PDCs were cultured in complete DMEM/F12 media without 10 microM Y-27632 dihydrochloride for at least two passages prior to the screen. The established cell lines NCI-H1341 and […] were cultured in DMEM/F-12, HEPES (Invitrogen, cat. 11330032), 5% defined fetal bovine serum (HyClone Laboratories Inc., cat. SH30070.03), ITS premix universal culture supplement [insulin (5 microg/mL), transferrin (5 microg/mL), and selenious acid (5 ng/mL)] […]
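Note: spheroids exposed to agents for seven days before readout.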
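Throughout, for viability, T/C: percent of DMSO vehicle control luminescence viability.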

With `CC(C)c1c(-c2ccccc2)nc2c(C#N)c[nH]n2c1=O` + Cc1cncc(-c2nc(NCCc3c[nH]c4ccccc34)c3ncn(C(C)C)c3n2)c1 the pIC50 (second compound 0.1 µM) was < 5.00, the pIC50 (second compound 0.316 µM) was < 5.00 and the pIC50 (second compound 1 µM) was < 5.00. For the same compound, the pIC50 (second compound 3.16 µM) was < 5.00, the pIC50 (second compound 10 µM) was > 7.50 and the viability, T/C (second compound 0.1 µM, first compound 0.0316 µM) was 112%. It also gave a viability, T/C (second compound 0.1 µM, first compound 0.1 µM) of 91.1%, a viability, T/C (second compound 0.1 µM, first compound 0.316 µM) of 104% and a viability, T/C (second compound 0.1 µM, first compound 1 µM) of 95.9%. The viability, T/C (second compound 0.1 µM, first compound 3.16 µM) was 94.2%, the viability, T/C (second compound 0.1 µM, first compound 10 µM) was 78.8% and the viability, T/C (second compound 0.316 µM, first compound 0.0316 µM) was 90.1%. It also gave a viability, T/C (second compound 0.316 µM, first compound 0.1 µM) of 97.2%, a viability, T/C (second compound 0.316 µM, first compound 0.316 µM) of 83.8% and a viability, T/C (second compound 0.316 µM, first compound 1 µM) of 82.5%. For the same compound, the viability, T/C (second compound 0.316 µM, first compound 3.16 µM) was 75.4%, the viability, T/C (second compound 0.316 µM, first compound 10 µM) was 78.1% and the viability, T/C (second compound 1 µM, first compound 0.0316 µM) was 82.7%. It also gave a viability, T/C (second compound 1 µM, first compound 0.1 µM) of 92.1%, a viability, T/C (second compound 1 µM, first compound 0.316 µM) of 90% and a viability, T/C (second compound 1 µM, first compound 1 µM) of 74.3%. The viability, T/C (second compound 1 µM, first compound 3.16 µM) was 76.4%, the viability, T/C (second compound 1 µM, first compound 10 µM) was 72.1% and the viability, T/C (second compound 3.16 µM, first compound 0.0316 µM) was 78.6%. For the same compound, the viability, T/C (second compound 3.16 µM, first compound 0.1 µM) was 87.2%, the viability, T/C (second compound 3.16 µM, first compound 0.316 µM) was 84.1% and the viability, T/C (second compound 3.16 µM, first compound 1 µM) was 57%. For the same compound, the viability, T/C (second compound 3.16 µM, first compound 3.16 µM) was 68.9%, the viability, T/C (second compound 3.16 µM, first compound 10 µM) was 63.9% and the viability, T/C (second compound 10 µM, first compound 0.0316 µM) was 5.73%. The viability, T/C (second compound 10 µM, first compound 0.1 µM) was 5.87%, the viability, T/C (second compound 10 µM, first compound 0.316 µM) was 2.84% and the viability, T/C (second compound 10 µM, first compound 1 µM) was 1.09%. It also gave a viability, T/C (second compound 10 µM, first compound 3.16 µM) of 3.05% and a viability, T/C (second compound 10 µM, first compound 10 µM) of 4.37%.

In the case of `CCN(c1cc(-c2ccc(CN3CCOCC3)cc2)cc(C(=O)NCc2c(C)cc(C)[nH]c2=O)c1C)C1CCOCC1` + Cc1cncc(-c2nc(NCCc3c[nH]c4ccccc34)c3ncn(C(C)C)c3n2)c1, the pIC50 (second compound 0.1 µM) was < 5.52, the pIC50 (second compound 0.316 µM) was < 5.52 and the pIC50 (second compound 1 µM) was < 5.52. For the same compound, the pIC50 (second compound 3.16 µM) was < 5.52, the pIC50 (second compound 10 µM) was > 8.02 and the viability, T/C (second compound 0.1 µM, first compound 0.00949 µM) was 90.5%. For the same compound, the viability, T/C (second compound 0.1 µM, first compound 0.03 µM) was 84.7%, the viability, T/C (second compound 0.1 µM, first compound 0.0949 µM) was 92% and the viability, T/C (second compound 0.1 µM, first compound 0.3 µM) was 83.1%. It also gave a viability, T/C (second compound 0.1 µM, first compound 0.949 µM) of 85.3%, a viability, T/C (second compound 0.1 µM, first compound 3 µM) of 70.7% and a viability, T/C (second compound 0.316 µM, first compound 0.00949 µM) of 88.9%. The viability, T/C (second compound 0.316 µM, first compound 0.03 µM) was 78.3%, the viability, T/C (second compound 0.316 µM, first compound 0.0949 µM) was 86.6% and the viability, T/C (second compound 0.316 µM, first compound 0.3 µM) was 74.2%. The viability, T/C (second compound 0.316 µM, first compound 0.949 µM) was 76.2%, the viability, T/C (second compound 0.316 µM, first compound 3 µM) was 75.7% and the viability, T/C (second compound 1 µM, first compound 0.00949 µM) was 89.4%. For the same compound, the viability, T/C (second compound 1 µM, first compound 0.03 µM) was 85.7%, the viability, T/C (second compound 1 µM, first compound 0.0949 µM) was 74.8% and the viability, T/C (second compound 1 µM, first compound 0.3 µM) was 75%. For the same compound, the viability, T/C (second compound 1 µM, first compound 0.949 µM) was 76.1%, the viability, T/C (second compound 1 µM, first compound 3 µM) was 73.7% and the viability, T/C (second compound 3.16 µM, first compound 0.00949 µM) was 74.8%. For the same compound, the viability, T/C (second compound 3.16 µM, first compound 0.03 µM) was 85.5%, the viability, T/C (second compound 3.16 µM, first compound 0.0949 µM) was 64.1% and the viability, T/C (second compound 3.16 µM, first compound 0.3 µM) was 51.7%. It also gave a viability, T/C (second compound 3.16 µM, first compound 0.949 µM) of 69%, a viability, T/C (second compound 3.16 µM, first compound 3 µM) of 66.3% and a viability, T/C (second compound 10 µM, first compound 0.00949 µM) of 24.9%. It also gave a viability, T/C (second compound 10 µM, first compound 0.03 µM) of 32.4%, a viability, T/C (second compound 10 µM, first compound 0.0949 µM) of 15.5% and a viability, T/C (second compound 10 µM, first compound 0.3 µM) of 1.7%. For the same compound, the viability, T/C (second compound 10 µM, first compound 0.949 µM) was 4.26% and the viability, T/C (second compound 10 µM, first compound 3 µM) was 0.96%.

Reference: PubChem BioAssay AID1919005 (Molecular Pharmacology Branch, DTP, NCI, 2023)
